From paper PMC9854728, “Synthesis and Antioxidant Properties of Novel 1,2,3-Triazole-Containing Nitrones” (Antioxidants, 2022)
Where two headings read alike, the source gives them in different places.

What was measured:
[1] = molecular target: T1, soybean lipoxygenase (LOX) (Glycine max, UniProt P08170); assay: In vitro inhibition of soybean lipoxygenase (LOX); type: biochemical; settings: for inhibition at 100 µM / LOX Inhibition (%): tested at 100 µM, no = no activity under the experimental conditions; for LOX Inhibition (%): 100 µM
T1 construct: purchased Aldrich Chemical Co. (Milwaukee, WI, USA)
T1 sequence (P08170 1-839): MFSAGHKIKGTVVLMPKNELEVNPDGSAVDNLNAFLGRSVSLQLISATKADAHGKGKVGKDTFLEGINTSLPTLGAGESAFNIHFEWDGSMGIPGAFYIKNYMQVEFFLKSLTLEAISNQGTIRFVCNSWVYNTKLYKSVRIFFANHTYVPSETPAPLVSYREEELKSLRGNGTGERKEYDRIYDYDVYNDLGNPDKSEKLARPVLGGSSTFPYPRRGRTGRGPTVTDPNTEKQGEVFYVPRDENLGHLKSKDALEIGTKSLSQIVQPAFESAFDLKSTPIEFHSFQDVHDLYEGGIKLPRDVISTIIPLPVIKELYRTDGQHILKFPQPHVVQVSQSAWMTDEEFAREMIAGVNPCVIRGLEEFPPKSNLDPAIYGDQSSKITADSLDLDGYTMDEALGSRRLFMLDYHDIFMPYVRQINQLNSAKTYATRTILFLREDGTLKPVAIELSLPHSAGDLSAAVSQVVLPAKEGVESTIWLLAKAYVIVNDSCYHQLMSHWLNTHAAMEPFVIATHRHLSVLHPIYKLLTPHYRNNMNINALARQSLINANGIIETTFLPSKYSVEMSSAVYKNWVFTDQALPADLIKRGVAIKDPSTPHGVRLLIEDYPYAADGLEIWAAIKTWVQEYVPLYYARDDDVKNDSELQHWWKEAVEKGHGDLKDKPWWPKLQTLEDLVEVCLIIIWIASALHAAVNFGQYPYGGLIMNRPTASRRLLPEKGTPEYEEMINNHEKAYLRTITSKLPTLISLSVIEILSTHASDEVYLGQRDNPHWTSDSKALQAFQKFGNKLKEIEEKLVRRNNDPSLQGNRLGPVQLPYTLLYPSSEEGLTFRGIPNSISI
Experimental: The in vitro antioxidant assays for nitrones 8 and 9 were performed concentrations of 100 µM (from a stock solution 10 mM in 0.1% DMSO in deionized water). Several dilutions were made when the determination of IC50 values was needed. […] The nitrones were diluted under sonification in the appropriate buffer in several dilutions (Table 1).
The in vitro study was evaluated as reported previously. Compounds 8a–f or 9a–f (10 μL) were incubated at rt with sodium linoleate (0.1 mM) and 200 μL of enzyme solution (1/9 × 10^–4 w/v in saline). Tris buffer pH 9 was inserted. The conversion of sodium linoleate to 13-hydroperoxylinoleic acid was recorded at 234 nm. […] Several dilutions of compounds were used for the determination of IC50 values. Blank determination served as the negative control.

[2] = Inhibition of linoleic acid peroxidation (ILP) induced by AAPH; settings: tested at 100 µM, 37 °C
Experimental: (§1) The in vitro antioxidant assays for nitrones 8 and 9 were performed concentrations of 100 µM (from a stock solution 10 mM in 0.1% DMSO in deionized water). Several dilutions were made when the determination of IC50 values was needed. All the determinations were made, at least in triplicate, and the standard deviation of absorbance was less than 10% of the mean. The nitrones were diluted under sonification in the appropriate buffer in several dilutions (Table 1).
The production of conjugated diene hydroperoxide by the oxidation of linoleate sodium 16 mM linoleate sodium (10 µL) in an aqueous solution is monitored at 234 nm. AAPH 40 mM (50 µL) is used as a free radical initiator at 37 °C under air conditions, followed by the tested nitrones. This assay can be used to follow oxidative changes by recording the absorbance values at 234 nm, using Trolox as a reference compound. The experimental procedure follows our previously reported protocol.

[3] = Competition with DMSO for hydroxyl radicals; settings: tested at 100 µM, Fe3+/ascorbic acid system, 37 °C, 30 min; no = no activity
Experimental: as §1
The hydroxyl radicals, produced by the Fe^3+/ascorbic acid system, were detected by the determination of formaldehyde produced from the oxidation of DMSO [8]. Solutions of EDTA (0.1 mM), Fe^3+ (167 μM), DMSO (33 mM) in phosphate buffer (50 mM, pH 7.4), as well as the tested compounds (10 μL final concentration 100 μM) and ascorbic acid (10 mM) were mixed in test tubes and incubated at 37 °C for 30 min. The reaction was stopped by adding CCl3COOH (17% w/v), and the % competition activity of the nitrones 8 and 9 with DMSO for hydroxyl radicals was calculated. Trolox was used as a positive control.

[4] = ABTS radical cation decolorization assay; settings: tested at 100 µM, 1 min, 734 nm; no = no activity
Experimental: as §1
ABTS stock solution in water (7 mM) was mixed with potassium persulfate (2.45 mM) and left in the dark at rt for 12–16 h before use, followed by the production of the ABTS radical cation (ABTS^+·). The assay was performed as described previously. The results were recorded after 1 min of the mixing solutions at 734 nm. Trolox was used as a positive control.

[5] = soybean LOX, sodium linoleate 0.1 mM, Tris buffer pH 9, read-out: LOX Inhibition IC50

SMILES	IC50 [1, 5]	melting point	inhibition at 100 µM [1]	LOX Inhibition (%) [1]	IC50 [1]	LOX Inhibition IC50 ([1]; soybean LOX, sodium linoleate 0.1 mM, Tris buffer pH 9)	LOX inhibition, fold less potent than NDGA ([1]; IC50 27 μM vs NDGA […])	ILP (%) [2]	Scavenging Activity for HO• (%) [3]	ABTS+• (%) [4]
C[N+]([O-])=CCn1cc(-c2ccccc2)nn1 [Nitrone 8a, N-(2-(4-Phenyl-1H-1,2,3-Triazol-1-yl)Ethylidene)Methanamine Oxide]	37.5 µM	97 to 98 °C						48.4%	93%	14%
C[N+]([O-])=CCn1cc(-c2ccccc2F)nn1 [Nitrone 8b, N-(2-(4-(2-Fluorophenyl)-1H-1,2,3-Triazol-1-yl)Ethylidene)Methanamine Oxide]		125 to 126 °C	24%					2%	61%	13%
C[N+]([O-])=CCn1cc(-c2cccc(F)c2)nn1 [Nitrone 8c, N-(2-(4-(3-Fluorophenyl)-1H-1,2,3-Triazol-1-yl)Ethylidene)Methanamine Oxide]		158 to 160 °C	40%					65%	59%	no
C[N+]([O-])=CCn1cc(-c2ccc(F)cc2)nn1 [Nitrone 8d, N-(2-(4-(4-Fluorophenyl)-1H-1,2,3-Triazol-1-yl)Ethylidene)Methanamine Oxide]		165 to 167 °C		loses its activity and no				54%	80%	5.3%
C[N+]([O-])=CCn1cc(-c2ccc(F)cc2F)nn1 [Nitrone 8e, N-(2-(4-(2,4-Difluorophenyl)-1H-1,2,3-Triazol-1-yl)Ethylidene)Methanamine Oxide]		122 to 123 °C			87.5 µM			87%	76%	no
Cc1cc(-c2cn(CC=[N+](C)[O-])nn2)ccc1F [Nitrone 8f, N-(2-(4-(4-Fluoro-3-Methylphenyl)-1H-1,2,3-Triazol-1-yl)Ethylidene)Methanamine Oxide]		171 to 173 °C	44%					41%	91.5%	34.3%
CC(C)(C)/[N+]([O-])=C/c1ccccc1 [PBN, (Z)-N-tert-butyl-1-phenylmethanimine oxide, reference compound]								11%	no	5%
Cc1c(C)c2c(c(C)c1O)CCC(C)(C(=O)O)O2 (stereo not drawn) [Trolox, reference compound]								93%	88%	91%

The next lines start with results.

IC50 [1, 5]	melting point	inhibition at 100 µM [1]	LOX Inhibition (%) [1]	IC50 [1]	LOX Inhibition IC50 ([1]; soybean LOX, sodium linoleate 0.1 mM, Tris buffer pH 9)	LOX inhibition, fold less potent than NDGA ([1]; IC50 27 μM vs NDGA […])	SMILES	ILP (%) [2]	Scavenging Activity for HO• (%) [3]	ABTS+• (%) [4]
	91 to 93 °C	44%					CC(C)(C)[N+]([O-])=CCn1cc(-c2ccccc2)nn1 [Nitrone 9a, 2-Methyl-N-(2-(4-Phenyl-1H-1,2,3-Triazol-1-yl)Ethylidene)Propan-2-Amine Oxide]	74.5%	76%	4%
40 µM	72 to 73 °C						CC(C)(C)[N+]([O-])=CCn1cc(-c2ccccc2F)nn1 [Nitrone 9b, N-(2-(4-(2-Fluorophenyl)-1H-1,2,3-Triazol-1-yl)Ethylidene)-2-Methylpropan-2-Amine Oxide]	73%	76%	no
	94 to 95 °C		no inhibition and no				CC(C)(C)[N+]([O-])=CCn1cc(-c2cccc(F)c2)nn1 [Nitrone 9c, N-(2-(4-(3-Fluorophenyl)-1H-1,2,3-Triazol-1-yl)Ethylidene)-2-Methylpropan-2-Amine Oxide]		89%	no
100 µM	128 to 131 °C						CC(C)(C)[N+]([O-])=CCn1cc(-c2ccc(F)cc2)nn1 [Nitrone 9d, N-(2-(4-(4-Fluorophenyl)-1H-1,2,3-Triazol-1-yl)Ethylidene)-2-Methylpropan-2-Amine Oxide]		99%	no
100 µM	122 to 123 °C				equipotent to the 9d		CC(C)(C)[N+]([O-])=CCn1cc(-c2ccc(F)cc2F)nn1 [Nitrone 9e, N-(2-(4-(2,4-Difluorophenyl)-1H-1,2,3-Triazol-1-yl)Ethylidene)-2-Methylpropan-2-Amine Oxide]	100%	100%	no
27 µM	104 to 107 °C					60 fold	Cc1cc(-c2cn(CC=[N+]([O-])C(C)(C)C)nn2)ccc1F [Nitrone 9f, N-(2-(4-(4-Fluoro-3-Methylphenyl)-1H-1,2,3-Triazol-1-yl)Ethylidene)-2-Methylpropan-2-Amine Oxide]	87%	99.9%	16%
